The record followed here is US20220273752A1, “MODULATION OF DENDRITIC CELL FUNCTION BY THE PHOSPHOLIPID MESSENGER LPA” (Cornell University, priority 2019, published 2022).

Assay [1] relates to PERK in human monocyte-derived DCs. Nature of the assay: RT-qPCR gene expression in human monocyte-derived DCs treated with LPA and TM, with or without PERK inhibitor. Format: cell-based. The conditions noted are these: LPA 100 μM and TM 1 μg/ml, 6 hours; RT-qPCR relative to ACTB. On the procedure: Monocyte-derived DCs were generated from peripheral human blood and cells were treated for 6 hours with LPA (100 μM), TM (1 μg/ml) or the combination of both, in the presence or absence of the PERK inhibitor AMG PERK 44. Gene expression was subsequently determined by RT-qPCR relative to endogenous ACTB in each sample. FIG. 6A graphically illustrates expression of the PERK-dependent ER stress response gene DDIT3 in monocyte-derived DCs with or without treatment by AMG PERK 44. FIG. 6B graphically illustrates expression of IL6 in monocyte-derived DCs with or without treatment by AMG PERK 44. FIG. 6C graphically illustrates expression of IL1B in monocyte-derived DCs with or without treatment by AMG PERK 44. FIG. 6D graphically illustrates expression of PTGS2 in monocyte-derived DCs with or without treatment by AMG PERK 44. FIG. 6E graphically illustrates expression of VEGFA in monocyte-derived DCs with or without treatment by AMG PERK 44.
(§1) The structure of AMG PERK 44 is shown below as a HCl salt.
On the technique in general: Real-time PCR tracks product formation cycle by cycle.

A further assay deals with PERK in murine DCs. The experiment in a line: PERK inhibitor in murine DCs in vitro (data not shown). Format: cell-based.
Text: as §1

The subject of assay [2] is ovarian cancer cells that overexpress VEGFA and Defb29 (ID8-Defb29/Vegf-A). Nature of the assay: Anti-tumor efficacy (host survival) in mice bearing ID8-Defb29/Vegf-A ovarian cancer. Format: in vivo, mouse. Particulars: mice bearing metastatic ovarian cancer. From the text:
FIG. 9A is a schematic diagram illustrating the treatment of female mice that were intraperitoneally injected with ID8 ovarian cancer cells overexpressing VEGFA and Def29b. FIG. 9B graphically illustrates host survival as monitored over time of the mice treated as described for FIG. 9A. ***P<0.001. ****P<0.0001.
FIG. 20A schematically illustrates the experimental scheme and treatment regimen employed.
FIG. 20B graphically illustrates the percent survival for the groups described in FIG. 20A. […] FIG. 20C graphically illustrates ascites accumulation over time of the groups of animals treated as described in FIG. 20A. **P<0.001, ***P<0.001. ****P<0.0001.
Consequently, production of this bioactive lipid mediator limits the effects of immunotherapies such as Poly-(I:C) treatment, and of novel chemotherapeutic interventions such as PARP inhibitors. Targeting the autotaxin-LPA pathway may therefore be beneficial to control ovarian cancer progression and unleash protective anti-tumor immune responses that extend host survival. […] Therefore, our findings indicate that autotaxin inhibitors could be repurposed to maximize the efficacy of PARP inhibitors and awaken protective type-I IFN responses in ovarian cancer patients.
Methods similar to those described above were used to evaluate the anti-tumor effects of various autotaxin and LPA receptor inhibitors. The inhibitors were administered to mice that had received ovarian cancer cells that overexpress VEGFA and Defb29 (ID8-Defb29/Vegf-A).

For assay [3], the system named is tumor-associated dendritic cells (tDCs). Nature of the assay: Ex vivo treatment of ovarian cancer ascites, gene expression in tumor-associated DCs. Format: cell-based, mouse. Particulars: ascites incubated ex vivo with 200 nM or 1000 nM, DCs isolated 24 h later; relative to Actb. From the text:
FIG. 7A-7B illustrate that conditional PERK deletion in CD11c^+ immune cells (Perk^f/f Cd11c-Cre) delays metastatic ovarian cancer progression. FIG. 7A illustrates survival of female mice of the indicated genotypes (n=8/group) that were intraperitoneally challenged with parental ID8 ovarian cancer cells and host survival was monitored over time. *P<0.05. ****P<0.0001. n=8/group. FIG. 7B graphically illustrates survival of female mice of the indicated genotypes (n=8/group) that were intraperitoneally challenged with variant ovarian cancer cells that are highly aggressive and overexpress VEGFA and Defb29 (ID8-Defb29/Vegf-A). Host survival was monitored over time. *P<0.05. ****P<0.0001. n=8/group. FIG. 8A-8D graphically illustrate expression of LPA/ER stress-induced tumorigenic and immunomodulatory genes by tumor-associated dendritic cells (tDCs) present in ovarian cancer ascites can be diminished using a small-molecule inhibitor targeting autotaxin.

Assay [4] concerns ID8-based ovarian cancer cells (Enpp2 sgRNA or control sgRNA). The experiment in a line: Host survival of mice bearing autotaxin-deficient (Enpp2 sgRNA) or control sgRNA ID8-based ovarian cancer. The conditions noted are these: for host survival in mice bearing autotaxin-deficient ovarian cancer: Enpp2 sgRNA tumors, compared with all other experimental groups. Format: in vivo, mouse. The source says: FIG. 17A-17C illustrate host survival and disease progression in mice bearing autotaxin-deficient ovarian cancer (Enpp2 sgRNA) and treated with the TLR3 agonist Poly(1:C). FIG. 17A schematically illustrates the experimental scheme and treatment regimen. FIG. 17B graphically illustrates the survival of the indicated groups when treated as described in FIG. 17A. […] FIG. 17C graphically illustrates ascites accumulation over time of the groups of animals treated as described in FIG. 17A. ****P<0.0001.
FIG. 18A-18C illustrate that blockade of the type-I IFN receptor 1 (IFNAR1) abrogates the therapeutic effects Poly-(I:C) in mice bearing autotaxin-deficient ovarian tumors. FIG. 18A schematically illustrates the experimental scheme and treatment regimen employed. FIG. 18B graphically illustrates the percent survival for the groups described in FIG. 18A. […] FIG. 18C graphically illustrates ascites accumulation over time of the groups of animals treated as described in FIG. 18A. ***P<0.0005, ****P<0.0001.
FIG. 19A-19C illustrate the effects of the PARP inhibitor Talazoparib in mice bearing autotaxin-deficient ovarian cancer cells. FIG. 19A schematically illustrates the experimental scheme and treatment regimen employed. FIG. 19B graphically illustrates the percent survival for the groups described in FIG. 19A. […] FIG. 19C graphically illustrates ascites accumulation over time of the groups of animals treated as described in FIG. 19A. **P<0.001, ***P<0.0005, ****P<0.0001.
To define the in vivo relevance of the findings related to type-I IFN expression, the inventors abrogated the gene encoding the LPA-generating enzyme autotaxin (Enpp2) in ID8-based ovarian cancer cells lines using CRISPR-Cas9.
Based on these key findings, experiments were then performed to determine whether treatment with the TLR3 agonist Poly(I:C), which can enhance type-I IFN immune responses, could increase survival in mice bearing autotaxin-deficient ovarian tumors.
To determine whether these effects are really mediated by enhanced type-I IFN signaling, mice were treated with anti-IFNAR1 blocking antibodies. […]

Regarding `Cc1ccc2cc(-c3c(C)ccc(C(=O)c4c(-c5ccccc5)n(C)n(-c5ccccc5)c4=O)c3N)ccc2n1` [AMG PERK 44], in assay [1], the “induction of pro-tumoral factors (IL6, IL1B, PTGS2, VEGFA) in LPA-exposed human DCs undergoing ER stress” value was “prevents induction of pro-tumoral factors”. Also, in the assay with PERK in murine DCs, the “effect compared with PERK deletion in murine DCs” value is “recapitulate the effects of PERK deletion”.

As for `CCc1nc2c(C)cc(N3CCN(CC(=O)N4CC(O)C4)CC3)cn2c1N(C)c1nc(-c2ccc(F)cc2)c(C#N)s1` [GLPG1690], the “host survival, single treatment” value in assay [2] (single agent) is “modestly extended host survival”. Moreover, the “host survival, combined with Talazoparib” value in assay [2] (with PARP inhibitor Talazoparib (FIG. 20)) is recorded as “significantly improved the therapeutic effects of Talazoparib”. Also, in assay [2] (with chemotherapy (FIG. 9)), the “host survival, combined with chemotherapy” value is “significantly enhanced the effects of chemotherapy”. In addition, the “expression of LPA/ER stress-induced Il1b, Il6, Ptgs2 and Vegf-α in tumor-associated DCs” value in assay [3] was “decreased the expression”.

As for `Cn1ncnc1[C@H]1c2n[nH]c(=O)c3cc(F)cc(c23)N[C@@H]1c1ccc(F)cc1` [Talazoparib], the “host survival in mice bearing autotaxin-deficient ovarian cancer” value in assay [4] is “significant increase in host survival”.

Consider Poly(I:C), for which the “host survival in mice bearing autotaxin-deficient ovarian cancer” value in assay [4] was “remarkable increase in survival”. Moreover, the “host survival, treatment alone” value in assay [4] (mice bearing control sgRNA ovarian cancer) is reported as “extended host survival”.
